ChEMBL document CHEMBL6134819, “Discovery of novel tranylcypromine-indazole-based derivatives as LSD1 inhibitors for acute myeloid leukemia treatment” (Eur J Med Chem, 2025)
pIC50: −log10 of the molar value. Activity calls are given as the source filed them. The rule behind the calls is not given here.

Key:
[1] = test system: MV4-11; assay: Induction of apoptosis in human MV4-11 cells assessed as late apoptotic cells at 2 micromol/L measured after 48 hrs by Annexin V-FITC/PI double staining based flow cytometry analysis (reference value: 7.70 %); assay type: functional; settings: dose 2 µmol/L, at 2 µM
[2] = Upregulation of CD86 expression in human MV4-11 cells at 4 micromol/L incubated for 48 hrs by flow cytometry analysis relative to control; assay type: functional; settings: dose 4 µmol/L, at 4 µM
[3] = Half life in male Sprague-Dawley rat at 10 mg/kg, po measured up to 24 hrs by LC-MS/MS analysis; assay type: ADME, organism-based; settings: in vivo
[4] = AUC (0 to infinity) in male Sprague-Dawley rat at 1 mg/kg, iv measured up to 24 hrs by LC-MS/MS analysis; assay type: ADME, organism-based; settings: in vivo
[5] = Metabolic stability in human liver microsomes assessed as half life measured up to 60 mins in presence of NADPH by LC-MS/MS analysis; assay type: ADME, Microsome
[6] = test system: MV4-11; assay: Upregulation of CD86 expression in human MV4-11 cells incubated for 48 hrs by flow cytometry analysis; assay type: functional, cell-based; settings: dose 2-4 µmol/L
[7] = Cmax in male Sprague-Dawley rat at 10 mg/kg, po measured up to 24 hrs by LC-MS/MS analysis; assay type: ADME, organism-based; settings: in vivo
[8] = test system: MV4-11; assay: Induction of apoptosis in human MV4-11 cells assessed as viable cells at 4 micromol/L measured after 48 hrs by Annexin V-FITC/PI double staining based flow cytometry analysis (reference value: 89.13%); assay type: functional; settings: MV4-11, 48 h, dose 4 µmol/L, read-out: Activity
[9] = test system: MV4-11; assay: Induction of apoptosis in human MV4-11 cells assessed as viable cells at 2 micromol/L measured after 48 hrs by Annexin V-FITC/PI double staining based flow cytometry analysis (reference value: 89.13%); assay type: functional; settings: MV4-11, 48 h, dose 2 µmol/L, read-out: Activity
[10] = Oral bioavailability in male Sprague-Dawley rat at 10 mg/kg measured up to 24 hrs by LC-MS/MS analysis; assay type: ADME, organism-based; settings: in vivo
[11] = test system: MV4-11; assay: Induction of apoptosis in human MV4-11 cells measured after 48 hrs by Annexin V-FITC/PI double staining based flow cytometry analysis; assay type: functional, cell-based; settings: dose 2-4 µmol/L
[12] = test system: MV4-11; assay: Induction of apoptosis in human MV4-11 cells assessed as necrotic cells at 2 micromol/L measured after 48 hrs by Annexin V-FITC/PI double staining based flow cytometry analysis (reference value: 1.16 %); assay type: functional; settings: dose 2 µmol/L, at 2 µM
[13] = Metabolic stability in rat liver microsomes assessed as intrinsic clearance measured up to 60 mins in presence of NADPH by LC-MS/MS analysis; assay type: ADME, Microsome; settings: read-out: CLH
[14] = target: Voltage-gated inwardly rectifying potassium channel KCNH2 (Homo sapiens, UniProt Q12809); assay: Inhibition of human ERG by whole cell patch clamp assay; assay type: toxicity
[15] = test system: HL-60; assay: Antiproliferative activity against human HL-60 cells assessed as inhibition of cell growth measured after 7 days by cell-titer glo assay; assay type: functional, cell-based; settings: HL-60, 168 h
[16] = target: T1, Amine oxidase [flavin-containing] A (Homo sapiens, UniProt P21397); assay: Inhibition of human N-terminal Flag-tagged MAOA extracted baculovirus infected in Sf9 cells measured after 0.5 hrs by MAO-Glo Assay
T1 sequence (P21397 whole entry): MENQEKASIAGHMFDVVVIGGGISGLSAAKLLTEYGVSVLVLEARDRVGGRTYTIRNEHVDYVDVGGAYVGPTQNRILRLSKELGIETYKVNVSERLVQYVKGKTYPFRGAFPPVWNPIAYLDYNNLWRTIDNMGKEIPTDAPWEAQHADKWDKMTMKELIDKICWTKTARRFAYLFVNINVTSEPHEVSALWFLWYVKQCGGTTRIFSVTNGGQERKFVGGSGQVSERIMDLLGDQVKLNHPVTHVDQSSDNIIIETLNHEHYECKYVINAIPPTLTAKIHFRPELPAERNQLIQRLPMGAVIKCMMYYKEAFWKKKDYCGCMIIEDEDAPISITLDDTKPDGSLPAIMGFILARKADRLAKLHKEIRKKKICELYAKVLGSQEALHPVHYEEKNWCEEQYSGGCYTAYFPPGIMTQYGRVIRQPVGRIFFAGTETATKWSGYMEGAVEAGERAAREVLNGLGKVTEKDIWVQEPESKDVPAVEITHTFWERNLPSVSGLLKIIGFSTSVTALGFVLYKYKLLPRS

[17] = AUC (0 to t) in male Sprague-Dawley rat at 10 mg/kg, po measured up to 24 hrs by LC-MS/MS analysis; assay type: ADME, organism-based; settings: in vivo
[18] = target: T2, Lysine-specific histone demethylase 1A (Homo sapiens, UniProt O60341); assay: Inhibition of LSD1 in human MV4-11 cells assessed as increase in LSD1 protein level at 2 to 4 micromol/L measured after 48 hrs by Western blot analysis; assay type: cell-based; settings: dose 2-4 µmol/L
[19] = test system: MV4-11; assay: Induction of apoptosis in human MV4-11 cells assessed as increase in cleaved caspase-7 level at 2 to 4 micromol/L measured after 72 hrs by Western blot analysis; assay type: functional, cell-based; settings: dose 2-4 µmol/L
[20] = test system: MV4-11; assay: Induction of apoptosis in human MV4-11 cells assessed as increase in cleaved caspase-3 level at 2 to 4 micromol/L measured after 72 hrs by Western blot analysis; assay type: functional, cell-based; settings: dose 2-4 µmol/L
[21] = test system: MV4-11; assay: Antiproliferative activity against human MV4-11 cells assessed as inhibition of cell growth measured after 7 days by cell-titer glo assay; assay type: functional, cell-based; settings: MV4-11, 168 h
[22] = test system: MV4-11; assay: Induction of apoptosis in human MV4-11 cells assessed as increase in late apoptosis measured after 48 hrs by Annexin V-FITC/PI double staining based flow cytometry analysis; assay type: functional, cell-based; settings: dose 2-4 µmol/L
[23] = test system: MV4-11; assay: Induction of apoptosis in human MV4-11 cells assessed as late apoptotic cells at 4 micromol/L measured after 48 hrs by Annexin V-FITC/PI double staining based flow cytometry analysis (reference value: 7.70 %); assay type: functional; settings: dose 4 µmol/L, at 4 µM
[24] = test system: MV4-11; assay: Induction of apoptosis in human MV4-11 cells assessed as early apoptotic cells at 2 micromol/L measured after 48 hrs by Annexin V-FITC/PI double staining based flow cytometry analysis (reference value: 2.01 %); assay type: functional; settings: dose 2 µmol/L, at 2 µM
[25] = Half life in male Sprague-Dawley rat at 1 mg/kg, iv measured up to 24 hrs by LC-MS/MS analysis; assay type: ADME, organism-based; settings: in vivo
[26] = test system: MV4-11; assay: Induction of apoptosis in human MV4-11 cells assessed as necrotic cells at 3 micromol/L measured after 48 hrs by Annexin V-FITC/PI double staining based flow cytometry analysis (reference value: 1.16 %); assay type: functional; settings: dose 3 µmol/L, at 3 µM
[27] = Metabolic stability in rat liver microsomes assessed as half life measured up to 60 mins in presence of NADPH by LC-MS/MS analysis; assay type: ADME, Microsome
[28] = test system: MV4-11; assay: Induction of apoptosis in human MV4-11 cells assessed as late apoptotic cells at 3 micromol/L measured after 48 hrs by Annexin V-FITC/PI double staining based flow cytometry analysis (reference value: 7.70 %); assay type: functional; settings: dose 3 µmol/L, at 3 µM
[29] = Clearance in male Sprague-Dawley rat at 1 mg/kg, iv measured up to 24 hrs by LC-MS/MS analysis; assay type: ADME, organism-based; settings: in vivo
[30] = target: T2, Lysine-specific histone demethylase 1A; assay: Induction of thermal stabilization of LSD1 in human MV4-11 cells at 50 to 75 degree C by […] analysis; assay type: cell-based

Sequence of Voltage-gated inwardly rectifying potassium channel KCNH2 (Q12809 whole entry): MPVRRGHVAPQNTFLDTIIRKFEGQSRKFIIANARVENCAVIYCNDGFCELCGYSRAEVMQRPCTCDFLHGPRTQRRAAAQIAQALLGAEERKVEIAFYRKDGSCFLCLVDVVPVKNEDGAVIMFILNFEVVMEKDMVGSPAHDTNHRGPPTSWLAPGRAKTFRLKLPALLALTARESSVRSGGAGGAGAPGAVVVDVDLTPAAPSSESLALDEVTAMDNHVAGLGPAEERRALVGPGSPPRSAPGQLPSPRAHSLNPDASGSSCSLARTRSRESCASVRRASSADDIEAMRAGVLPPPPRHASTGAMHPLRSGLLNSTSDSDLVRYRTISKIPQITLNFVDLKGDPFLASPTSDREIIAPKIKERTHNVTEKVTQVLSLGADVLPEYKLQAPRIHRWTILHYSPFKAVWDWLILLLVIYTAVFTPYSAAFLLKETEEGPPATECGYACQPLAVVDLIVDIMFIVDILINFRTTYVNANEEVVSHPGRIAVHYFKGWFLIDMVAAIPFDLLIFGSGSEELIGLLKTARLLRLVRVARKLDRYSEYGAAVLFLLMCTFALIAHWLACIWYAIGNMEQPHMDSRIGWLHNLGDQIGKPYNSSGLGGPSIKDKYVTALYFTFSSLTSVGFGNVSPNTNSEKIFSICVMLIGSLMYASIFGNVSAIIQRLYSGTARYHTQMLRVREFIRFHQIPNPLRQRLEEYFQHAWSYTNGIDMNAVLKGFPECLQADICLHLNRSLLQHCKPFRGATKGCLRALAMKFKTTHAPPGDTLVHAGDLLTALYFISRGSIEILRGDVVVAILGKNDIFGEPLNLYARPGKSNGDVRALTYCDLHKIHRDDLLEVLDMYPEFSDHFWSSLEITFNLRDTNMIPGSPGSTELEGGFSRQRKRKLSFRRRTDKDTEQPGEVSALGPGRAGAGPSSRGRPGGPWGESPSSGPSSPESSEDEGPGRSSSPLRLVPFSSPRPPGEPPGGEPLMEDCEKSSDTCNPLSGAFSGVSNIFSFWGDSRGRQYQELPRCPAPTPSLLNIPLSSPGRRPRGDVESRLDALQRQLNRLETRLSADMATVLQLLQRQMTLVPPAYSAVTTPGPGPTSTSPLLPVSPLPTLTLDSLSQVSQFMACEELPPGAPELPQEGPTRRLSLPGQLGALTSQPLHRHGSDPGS

Cl.O=S(=O)(c1ccccc1)n1ncc2cc(-n3cc(CN[C@@H]4C[C@H]4c4ccc(F)c(F)c4)nn3)ccc21
Activity [1]: 13.76% | Activity [2]: 33.76% | half-life [3]: 86.4 min | AUC(0-inf) [4]: 483 ng·h/mL | half-life [5]: 11.6 min | Activity [6]: Dose-dependent-effect | Cmax [7]: 89.8 ng/mL | viability at 4 µM [8]: 77.4% | viability at 2 µM [9]: 80.4% | bioavailability [10]: 6.01% | Activity [11]: Dose-dependent-effect | Activity [12]: 3.32% | CLint scaled [13]: 352 mL/min/kg | pIC50 [14]: 6.24 | pIC50 [15]: 5.85 | pIC50 [16]: 6.08 | AUC(0-t) at 24 h [17]: 280 ng·h/mL | inhibition [18]: Active | Activity [19]: Active | Activity [20]: Active | pIC50 [21]: 5.85 | Activity [22]: Dose-dependent-effect | Activity [23]: 15.39% | Activity [24]: 2.52% | half-life [25]: 41.4 min | Activity [26]: 2.8% | half-life [27]: 3.94 min | Activity [28]: 13.22% | clearance [29]: 35.3 mL/min/kg | Activity [30]: Active
